# Laboratory results reported in patent US11781110B2, “Induction of corneal endothelial cells” (The Regents of the University of California, priority 2016, dated 2023).
# Key:
# [1] = tested on: EFSCs; test: Directed differentiation of eye field stem cells into ocular neural crest stem cells; type: cell-based, human; details: 3 μM in NCSC induction medium; after a week of induction
# Method: Directed differentiation of eye field stem cells into ocular neural crest stem cells. […] The in vitro derivation of neural crest stem cells from PSCs has been previously described (Chambers et al., 2013; Lee et al., 2007). It was reasoned that, if EFSCs could be primed toward ocular neural crest lineage, the cells could serve as a direct and renewable source to generate CECs in culture. To direct EFSCs toward neural crest fate, EFSCs were seeded at low density, and neural crest lineage specification was initiated in NCSC induction medium supplemented with the presence of 3 μM CHIR 99021. […] Immunostaining also detected the expression of nuclear translocation of beta-catenin (FIG. 4C), an indication of increased WNT canonical signaling during neural crest formation.
# [2] = tested on: EFSC-derived NCSCs; test: Differentiation of CECs from ocular neural crest stem cells; type: cell-based, human; details: added to the differentiation medium
# Method: Differentiation of CECs from ocular neural crest stem cells. In order to test if CECs could be induced from the EFSC-derived NCSCs directly in vitro, NCSCs were seeded at low cell density on an FNC coated plate. […] They remained proliferative and formed a relatively homogenous monolayer of cells after a few passages (FIG. 5B). To further characterize the NCSC-derived CEC sheets, immunostaining for several typical CEC markers including tight junction protein 1 (TJP1/ZO-1), N-Cadherin, and Na+/K+ ATPase was performed (FIG. 5C).
# [3] = tested on: rabbit corneal endothelium; test: Rabbit corneal endothelium injury model; type: in vivo; details: compared
# [4] = tested on: CEC; test: CEC migration, proliferation and wound healing with ROCK inhibitor; type: cell-based; details: compared with Y-27632
# [5] = tested on: corneal endothelial cells (CECs); details: cited from earlier work
structure (smiles),measurement,setting,value
Cc1c[nH]c(-c2cnc(NCCNc3ccc(C#N)cn3)nc2-c2ccc(Cl)cc2Cl)n1 [CHIR 99021],expression of NCSC surface marker HNK-1,[1],majority of EFSCs start to express a typical NCSC surface marker HNK-1
Cc1cncc2cccc(S(=O)(=O)N3CCCNC[C@@H]3C)c12 [H-1125],effect on differentiation of CECs,[2],improve the differentiation of CECs
same,wound healing effect,[3],better wound healing effect
same,"effect on CEC migration, proliferation and wound healing",[4],more significant stimulatory effect
C[C@@H](N)[C@H]1CC[C@H](C(=O)Nc2ccncc2)CC1 [Y-27632],apoptosis of CECs,[5],inhibition of apoptosis
same,proliferation of corneal endothelial cells (CECs),[5],increased proliferation
same,corneal endothelial wound healing,[5]; in vitro and in vivo,enhanced corneal endothelial wound healing
